# Source: patent US20170296491A1, “PHARMACEUTICAL COMPOSITIONS COMPRISING LEVODOPA AMIDE AND USES THEREOF” (priority 2015, published 2017)
# Where a name gives a salt, the structure may show the parent alone.
# Columns and labels:
# [1] = Plasma pharmacokinetics of LDA and LD after oral LDA-HCl with and without CD in rats; type: in vivo; conditions: oral LDA-HCl 25 mg/kg with or without oral 10 mg/kg CD
# Procedure: The purpose of this experiment was to determine the plasma pharmacokinetics of LDA and LD following oral administration of LD or LDA-HCl with and without CD in Wistar rats.
# Wistar rats underwent fasting overnight prior to the dosing and received food only 2 hour post-dosing. The method used to dose orally was via oesophagotubage. Solutions were prepared as described above.
# [2] = Effect of preparation method and pH on stability of LDA-HCl/CD formulations; type: physicochemical; conditions: 5 days at room temperature (Table 7)
# Procedure: LDA-HCl/CD formulations were prepared by the following methods, and were then tested for stability. Method 1. Carbidopa (CD, powder) [Teva Pharmaceuticals Ltd., Israel] was added to LDA-HCl solution. […] Precipitation occurred at room temperature. Method 2. Liquid CD formulations were prepared by weighting CD [Teva Pharmaceuticals Ltd., Israel] in a suitable container with different L-arginine [Merck] weights to obtain a final concentration of 0.8% CD (wet form, 0.75% dry form) in different molar ratios to arginine (Table 6). CD formulations were prepared as described in the International Publication No. WO 2010/134074. LDA-HCl (powder) was added to CD solutions to attain the final desired concentration of LDA-HCl/CD formulations. Method 3. CD solutions (40 mg/ml, prepared as described in the International Publication No. WO 2010/134074) were mixed with LDA-HCl solutions to attain the final desired concentration of LDA/CD formulations. The LDA-HCl formulations were prepared by dissolving 200, 160 or 120 mg/ml of LDA-HCl in 40 mM citric buffer. The chemical stability of 7 LDA-HCl/CD formulations was evaluated by HPLC analysis at t0 and after 5 days at room temperature. The recovery after 5 days at room temperature was calculated compared to t0 (Table 7).
# [3] = Physical stability of LDA-HCl solutions with or without added CD-Arg formulation; type: physicochemical; conditions: preferably pH >4.6
# Procedure: HCl solutions at 3 different concentrations containing 0.3% Tween 80 were added to LDA to obtain solutions having a final LDA concentration of 200 mg/ml and a molar ratio of 1:0.89, 1:0.92 and 1:0.95 LDA:HCl. CD-Arg formulation (CD:Arg molar ratio 1:1.25) was prepared in Tween 80 0.3% and was added gradually under stirring to 4 volumes of each of the 3 LDA-HCl solutions. The physical stability of the solutions was evaluated (Table 15). As shown, the addition of CD to LDA-HCl solutions yielded stable solutions if added to LDA-HCl solutions having a pH>3.8, preferably pH >4.6.
# [4] = Physical stability (visual) of LDA-HCl 50 mg/ml in water or buffers at room temperature; type: physicochemical; conditions: for Color at T = 24 h (RT): 50 mg/ml; for time physically stable at room temperature: 5% LDA-HCl and water or a buffer
# Procedure: (§1) Liquid formulations were prepared by dissolving LDA-HCl, 50 mg/ml in water or different buffers (40 mM) at various pH levels. The physical stability of LDA was determined visually after 24 hours and 7 days (Table 3), and the chemical stability of LDA was determined by HPLC analysis (Table 4) after 24 h at room temperature (RT) and expressed as % recovery compared to t0.
# [5] = Stability of LDA-HCl 50 mg/ml in citrate or phosphate buffer, 4 days at 37° C., HPLC; type: physicochemical
# Procedure: Liquid formulations were prepared by dissolving LDA-HCl, 50 mg/ml in buffer citrate or buffer phosphate at different pH levels (Table 2). The formulations were incubated 4 days at 37° C., their stability was evaluated by HPLC analysis at the end of the fourth day, and the recovery after 4 days at 37° C. was calculated compared to T=0.
# [6] = Long term stability of LDA-HCl 200 mg/ml in citric buffer with NAC, 2 weeks at 37° C.; type: physicochemical
# Procedure: Liquid formulation comprising LDA-HCl in citric buffer was prepared by dissolving 200 mg/ml LDA-HCl in 40 mM citric buffer with 0.05% N-acetylcysteine (NAC) as antioxidant. The formulation was incubated for 2 weeks at 37° C. The stability of LDA after 14 days at 37° C. was evaluated by HPLC analysis, and the recovery calculated compared to t0 (Table 5).
# [7] = Chemical stability (HPLC) of LDA-HCl 50 mg/ml in water or buffers after 24 h at room temperature; type: physicochemical
# Procedure: as §1
# [8] = 200 mg/ml LDA-HCl, 40 mM citric buffer, 0.05% NAC
structure (smiles),measurement,setting,value
"C[C@@](Cc1ccc(O)c(O)c1)(NN)C(=O)O [CD, Carbidopa]",effect of CD on plasma concentration of LD,[1],increases
same,effect of CD on plasma concentrations of LDA,[1],no effect
same,chemical stability in LDA-HCl/CD formulations,[2],pH-dependent
"NC(=O)C(N)Cc1ccc(O)c(O)c1 (stereo not drawn) [LDA-HCl, 2-amino-3-(3,4-dihydroxyphenyl)propanamide]",pH of LDA-HCl solution at which addition of CD yielded stable solutions,[3],> 3.8
same,Color at T = 24 h (RT),[4]; Acetate pH 3.76,light yellow
same,Color at T = 24 h (RT),[4]; Acetate pH 4.72,light yellow
same,Color at T = 24 h (RT),[4]; Citrate pH 3.09,light yellow
same,Color at T = 24 h (RT),[4]; Citrate pH 3.90,light yellow
same,Color at T = 24 h (RT),[4]; Citrate pH 4.85,light yellow
same,Color at T = 24 h (RT),[4]; Citrate pH 5.65,medium yellow
same,Color at T = 24 h (RT),[4]; Histidine pH 6.20,medium yellow
same,Color at T = 24 h (RT),[4]; Phosphate pH 6.03,medium yellow
same,Color at T = 24 h (RT),[4]; Phosphate pH 6.32,medium yellow
same,Color at T = 24 h (RT),[4]; Tartrate pH 3.84,light yellow
same,Color at T = 24 h (RT),[4]; Tris pH 5.39,light yellow
same,Color at T = 24 h (RT),[4]; Tris pH 6.14,medium yellow
same,Color at T = 24 h (RT),[4]; Tris pH 6.61,medium yellow
same,Color at T = 24 h (RT),[4]; Water for injection (WFI) pH 3.56,light yellow
same,Color at T = 24 h (RT),[4]; Water for injection (WFI) pH 4.14,light yellow
same,Color at T = 24 h (RT),[4]; Water for injection (WFI) pH 4.95,light yellow
same,Color at T = 24 h (RT),[4]; Water for injection (WFI) pH 5.93,medium yellow
same,Color at T = 24 h (RT),[4]; Water for injection (WFI) pH 6.44,medium yellow
same,Color at T = 24 h (RT),[4]; Water for injection (WFI) pH 6.91,strong yellow
same,time physically stable at room temperature,[4]; all conditions tested,24 h
same,time physically stable at room temperature,[4]; only formulations having a pH<5.5,at least 7 days
same,stability at 37° C.,[5]; in buffer phosphate at pH>5.7,not stable
same,time stable at 37° C.,[5]; in citrate buffer,at least 4 days
same,LDA content at T = 0,[6]; [8],18.69
same,"LDA content at T = 2 w, 37° C.",[6]; [8],19.01
same,time stable,[6]; high concentrations of LDA-HCl and NAC in citric buffer,at least 14 days
same,time chemically stable at room temperature,"[7]; 5% LDA-HCl and water or a buffer, pH ranging between 3 to 7",at least 24 h
same,LDA (mg/ml) at T = 0,[7]; Acetate pH 3.76,52.09 mg/mL
same,LDA (mg/ml) at T = 24 hr (RT),[7]; Acetate pH 3.76,52.41 mg/mL
same,LDA (mg/ml) at T = 0,[7]; Acetate pH 4.72,52.66 mg/mL
same,LDA (mg/ml) at T = 24 hr (RT),[7]; Acetate pH 4.72,53.05 mg/mL
same,LDA (mg/ml) at T = 0,[7]; Citrate pH 3.09,51.84 mg/mL
same,LDA (mg/ml) at T = 24 hr (RT),[7]; Citrate pH 3.09,52.09 mg/mL
same,LDA (mg/ml) at T = 0,[7]; Citrate pH 3.9,51.34 mg/mL
same,LDA (mg/ml) at T = 24 hr (RT),[7]; Citrate pH 3.9,51.7 mg/mL
same,LDA (mg/ml) at T = 0,[7]; Citrate pH 4.85,52.05 mg/mL
same,LDA (mg/ml) at T = 24 hr (RT),[7]; Citrate pH 4.85,52.75 mg/mL
same,LDA (mg/ml) at T = 0,[7]; Citrate pH 5.65,51.24 mg/mL
same,LDA (mg/ml) at T = 24 hr (RT),[7]; Citrate pH 5.65,51.03 mg/mL
same,LDA (mg/ml) at T = 0,[7]; Histidine pH 6.2,51.27 mg/mL
same,LDA (mg/ml) at T = 24 hr (RT),[7]; Histidine pH 6.2,51.76 mg/mL
same,LDA (mg/ml) at T = 0,[7]; Phosphate pH 6.03,51.32 mg/mL
same,LDA (mg/ml) at T = 24 hr (RT),[7]; Phosphate pH 6.03,51.36 mg/mL
same,LDA (mg/ml) at T = 0,[7]; Phosphate pH 6.32,52.05 mg/mL
same,LDA (mg/ml) at T = 24 hr (RT),[7]; Phosphate pH 6.32,51.82 mg/mL
same,LDA (mg/ml) at T = 0,[7]; Tartrate pH 3.84,52.46 mg/mL
same,LDA (mg/ml) at T = 24 hr (RT),[7]; Tartrate pH 3.84,52.26 mg/mL
same,LDA (mg/ml) at T = 0,[7]; Tris pH 5.39,51.88 mg/mL
same,LDA (mg/ml) at T = 24 hr (RT),[7]; Tris pH 5.39,52.08 mg/mL
same,LDA (mg/ml) at T = 0,[7]; Tris pH 6.14,51.79 mg/mL
same,LDA (mg/ml) at T = 24 hr (RT),[7]; Tris pH 6.14,51.73 mg/mL
same,LDA (mg/ml) at T = 0,[7]; Tris pH 6.61,51.62 mg/mL
same,LDA (mg/ml) at T = 24 hr (RT),[7]; Tris pH 6.61,51.74 mg/mL
same,LDA (mg/ml) at T = 0,[7]; WFI pH 3.56,51.91 mg/mL
same,LDA (mg/ml) at T = 24 hr (RT),[7]; WFI pH 3.56,51.34 mg/mL
same,LDA (mg/ml) at T = 0,[7]; WFI pH 4.14,51.3 mg/mL
same,LDA (mg/ml) at T = 24 hr (RT),[7]; WFI pH 4.14,51.57 mg/mL
same,LDA (mg/ml) at T = 0,[7]; WFI pH 4.95,51.07 mg/mL
same,LDA (mg/ml) at T = 24 hr (RT),[7]; WFI pH 4.95,50.23 mg/mL
same,LDA (mg/ml) at T = 0,[7]; WFI pH 5.93,51.32 mg/mL
same,LDA (mg/ml) at T = 24 hr (RT),[7]; WFI pH 5.93,50.5 mg/mL
same,LDA (mg/ml) at T = 0,[7]; WFI pH 6.44,51.24 mg/mL
same,LDA (mg/ml) at T = 24 hr (RT),[7]; WFI pH 6.44,50.33 mg/mL
same,LDA (mg/ml) at T = 0,[7]; WFI pH 6.91,51.05 mg/mL
same,LDA (mg/ml) at T = 24 hr (RT),[7]; WFI pH 6.91,49.54 mg/mL
